Consider five compounds from US20140128272A1, “Method for Inducing Dormancy of Cancer Tissue-Derived Cell Mass and Method for Evaluating Treating Means with the Use of Cancer-Tissue-Derived Cell Mass” (Osaka Prefectural Hospital Organization, priority 2012, published 2014).

The subject of test [1] is cancer tissue-derived cell mass (sample C45, human colon cancer). In words: in vitro drug sensitivity test with cancer tissue-derived cell mass, normal versus dormant state. The test is classed as cell-based. Particulars: day 7, 5-FU and oxaliplatin 0.01-10 μg/ml, SN38 0.001-1 ng/ml, FIG. 6; for response of cancer tissue-derived cell mass to drug concentration (relative increase rate of area, no drug = 1): dormant state (dormancy medium); for proliferation of cancer cells in the cancer tissue-derived cell mass (relative increase rate of area, no drug = 1): normal culture conditions (StemPro hESC SFM medium). The method, then: Using SN38,5-FU, and oxaliplatin known as anti-cancer agents, a drug sensitivity test was performed with C45 sample of Example 2. The test was proceeded by culturing the C45 obtained in example 2, in 1 cc of a dormancy medium or StemPro hESC SFM (Gibco; A10007-01) medium. Further, as to each drug, 5-FU and oxaliplatin were applied at concentrations of 0.01 μg/ml, 0.1 μg/ml, 1 μg/ml, and 10 μg/ml, and SN38 was applied at concentrations of 0.001 ng/ml, 0.01 ng/ml, 0.1 ng/ml, and 1 ng/ml, and comparative evaluation of the culture state was performed on day 7 after each culture. An increase rate of the area of the cancer tissue-derived cell mass was relatively expressed when the increase rate of the area under culture with no drug application was expressed as 1.

For test [2] the test system is unchanged. The test is described as follows: effect of growth factors on proliferation of cancer tissue-derived cell mass under 1% oxygen. The format is cell-based. Particulars: added to dormancy medium under hypoxic conditions (1% oxygen); heregulin 10 ng/ml, IGF 200 ng/ml, or both; FIG. 4. How it is done:
The cancer tissue-derived cell mass obtained in Example 2 was purified as a composition and cultured in a dormancy medium (20 ml): DMEM/F12 with GlutaMAX (Invitrogen) 18.5 ml, 25% BSA (Invitrogen) 1.44 ml, and 2ME Stock […] in a 6 cm non-treated dish (EIKEN CHEMICAL: AG2000) in a personal gas incubator (APM-30D, ASTEC Co., Ltd.) or INVIVO2 400 (RUSKINN) for 15 days at 37° C. under the conditions of an oxygen concentration of 1%.

On to `O=c1[nH]cc(F)c(=O)[nH]1` [5-FU], for which, in test [1], the “response of cancer tissue-derived cell mass to drug concentration (relative increase rate of area, no drug = 1)” value is “did not respond to the concentration of drugs at all or responded little to it” and the “proliferation of cancer cells in the cancer tissue-derived cell mass (relative increase rate of area, no drug = 1)” value is “suppressed”.

Turning to `CCc1c2c(nc3ccc(O)cc13)-c1cc3c(c(=O)n1C2)COC(=O)[C@]3(O)CC` [SN38], in test [1], the “response of cancer tissue-derived cell mass to drug concentration (relative increase rate of area, no drug = 1)” value was “did not respond to the concentration of drugs at all or responded little to it” and the “proliferation of cancer cells in the cancer tissue-derived cell mass (relative increase rate of area, no drug = 1)” value was “suppressed”.

Turning to `O=C1[O][Pt]2([NH][C@@H]3CCCC[C@H]3[NH]2)[O]C1=O` [oxaliplatin], in test [1], the “response of cancer tissue-derived cell mass to drug concentration (relative increase rate of area, no drug = 1)” value is given as “did not respond to the concentration of drugs at all or responded little to it” and the “proliferation of cancer cells in the cancer tissue-derived cell mass (relative increase rate of area, no drug = 1)” value was “suppressed”.

Take heregulin: in test [2], the “growth of the cancer tissue-derived cell mass” value was “grew up rapidly”.

Turning to insulin-like growth factor [IGF], in test [2], the “growth of the cancer tissue-derived cell mass” value is on record as “grew up rapidly”.
